Test results as given in US12162872B2, “Cycloalkylurea derivative” (Sumitomo Pharma Co., Ltd., priority 2019, dated 2024).

These molecules were tested against T1, Human orexin receptor type 2 (Homo sapiens, UniProt O43614) (assay: Test 2: Evaluation of agonist activity for orexin receptor type 2 (aequorin luminescence, intracellular calcium mobilization in CHO cells)). Details: relative percentage of luminescence for the luminescence (100%) of Orexin A (100 pM); CHO cells transiently expressing human orexin receptor type 2 and apoaequorin; Orexin A Lot. 671009.
T1 construct: expressed in transfected cells; host or cells: CHO cells (transient expression)
T1 sequence (O43614 1-444): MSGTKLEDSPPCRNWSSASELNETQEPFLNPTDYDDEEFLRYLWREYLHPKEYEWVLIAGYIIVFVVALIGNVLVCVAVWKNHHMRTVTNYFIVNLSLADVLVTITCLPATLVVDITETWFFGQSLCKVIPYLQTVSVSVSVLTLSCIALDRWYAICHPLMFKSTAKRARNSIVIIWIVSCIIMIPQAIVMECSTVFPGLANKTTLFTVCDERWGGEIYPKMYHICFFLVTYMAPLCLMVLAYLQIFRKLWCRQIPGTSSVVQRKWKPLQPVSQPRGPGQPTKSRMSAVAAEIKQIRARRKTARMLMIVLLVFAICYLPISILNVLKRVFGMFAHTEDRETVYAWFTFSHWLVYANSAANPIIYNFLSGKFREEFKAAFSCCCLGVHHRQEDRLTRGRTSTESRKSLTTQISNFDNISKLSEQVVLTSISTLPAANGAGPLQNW
Assay type: cell-based
Description: Test 2: Evaluation of Agonist Activity for Orexin Receptor Type 2
Human orexin receptor type 2 and apoaequorin were transiently expressed in CHO cells, and the agonist activity was evaluated based on intracellular calcium mobilization with ligand stimulation. The CHO cells transiently-expressed human orexin receptor type 2 and apoaequorin were seeded on a 384-well plate by 2,000 cells/well, and then incubated for 16-22 hours. After the plate was returned to room temperature, Coelenterazine hcp (final concentration: 1 μM) was added to the plate, and the plate was allowed to stand at room temperature for 2 hours. And then, Orexin A (PEPTIDE INSTITUTE, INC., Lot. 671009) or each test compound was added to the plate, and the luminescence of the cells was measured with FDSS7000 (Hamamatsu Photonics K.K.), wherein Orexin A and each test compound were dissolved in DMSO (final concentration: 0.1%), and diluted with a buffer (Hanks, 20 mM HEPES, 0.1% BSA). The agonist activity of each test compound for orexin receptor type 2 was calculated as relative percentage of luminescence for the luminescence (100%) of Orexin A (100 pM).

Row | SMILES | agonist activity (%)
1 | CC(C)N1[C@@H]2CC[C@H]1C[C@H](O[C@H]1CCCC(F)(F)[C@@H]1NC(=O)N1CCC(C)(c3noc([C@@H]4C[C@@H]4F)n3)CC1)C2 [Example 98, N-[(1R,6S)-2,2-difluoro-6-{[(1R,3S,5S)-8-(propan-2-yl)-8-azabicyclo[3.2.1]octan-3-yl]oxy}cyclohexyl]-4-{5-[(1S,2S)-2-fluorocyclopropyl]-1,2,4-oxadiazol-3-yl}-4-methylpiperidine-1-carboxamide] | 271
2 | CC(C)N1CCN(C(=O)O[C@H]2CCCC(F)(F)[C@@H]2NC(=O)N2CCC(C)(c3noc([C@@H]4C[C@@H]4F)n3)CC2)CC1 [Example 153, (1S,2R)-3,3-difluoro-2-[(4-{5-[(1S,2S)-2-fluorocyclopropyl]-1,2,4-oxadiazol-3-yl}-4-methylpiperidine-1-carbonyl)amino]cyclohexyl 4-(propan-2-yl)piperazine-1-carboxylate] | 350
3 | CC(C)N(C)C1(C)CCN([C@H]2CCCC(F)(F)[C@@H]2NC(=O)N2CCC(C)(c3noc([C@@H]4C[C@@H]4F)n3)CC2)CC1 [Example 131, N-[(1R,6S)-2,2-difluoro-6-{4-methyl-4-[methyl(propan-2-yl)amino]piperidin-1-yl}cyclohexyl]-4-{5-[(1S,2S)-2-fluorocyclopropyl]-1,2,4-oxadiazol-3-yl}-4-methylpiperidine-1-carboxamide] | 461
4 | CC(C)N1C[C@H]2CC[C@@H](C1)[C@H]2O[C@H]1CCCC(F)(F)[C@@H]1NC(=O)N1CCC(C)(c2noc([C@@H]3C[C@@H]3F)n2)CC1 [Example 100, N-[(1R,6S)-2,2-difluoro-6-{[(1R,5S,8R)-3-(propan-2-yl)-3-azabicyclo[3.2.1]octan-8-yl]oxy}cyclohexyl]-4-{5-[(1S,2S)-2-fluorocyclopropyl]-1,2,4-oxadiazol-3-yl}-4-methylpiperidine-1-carboxamide] | 340
5 | CN(C1CC1)[C@H]1CCN([C@H]2CCCC(F)(F)[C@@H]2NC(=O)N2CCC(C)(c3noc([C@@H]4C[C@@H]4F)n3)CC2)C1 [Example 115, N-[(1R,6S)-6-{(3S)-3-[cyclopropyl(methyl)amino]pyrrolidin-1-yl}-2,2-difluorocyclohexyl]-4-{5-[(1S,2S)-2-fluorocyclopropyl]-1,2,4-oxadiazol-3-yl}-4-methylpiperidine-1-carboxamide] | 403
6 | CC(C)N1CCN(C(=O)[C@H]2CCCC(F)(F)[C@@H]2NC(=O)N2CCC(C)(c3noc([C@@H]4C[C@@H]4F)n3)CC2)CC1 [Example 132, N-{(1R,6S)-2,2-difluoro-6-[4-(propan-2-yl)piperazine-1-carbonyl]cyclohexyl}-4-{5-[(1S,2S)-2-fluorocyclopropyl]-1,2,4-oxadiazol-3-yl}-4-methylpiperidine-1-carboxamide] | 166
7 | CC(C)(F)CN1CC[C@H](O[C@H]2CCCC(F)(F)[C@@H]2NC(=O)N2CCC(C)(c3noc([C@@H]4C[C@@H]4F)n3)CC2)C1 [Example 143, N-[(1R,6S)-2,2-difluoro-6-{[(3S)-1-(2-fluoro-2-methylpropyl)pyrrolidin-3-yl]oxy}cyclohexyl]-4-{5-[(1S,2S)-2-fluorocyclopropyl]-1,2,4-oxadiazol-3-yl}-4-methylpiperidine-1-carboxamide] | 444
8 | CC(C)N1CCN(C[C@H]2CCCC(F)(F)[C@@H]2NC(=O)N2CCC(C)(c3noc([C@@H]4C[C@@H]4F)n3)CC2)CC1 [Example 117, N-[(1R,6R)-2,2-difluoro-6-{[4-(propan-2-yl)piperazin-1-yl]methyl}cyclohexyl]-4-{5-[(1S,2S)-2-fluorocyclopropyl]-1,2,4-oxadiazol-3-yl}-4-methylpiperidine-1-carboxamide] | 465
9 | CC(C)N1CCN([C@H]2CCCCC[C@@H]2NC(=O)N2CCC(C)(c3noc(C4CC4)n3)CC2)CC1 (racemic) [Example 151, rac-4-(5-cyclopropyl-1,2,4-oxadiazol-3-yl)-4-methyl-N-{(1S,2S)-2-[4-(propan-2-yl)piperazin-1-yl]cycloheptyl}piperidine-1-carboxamide] | 368
10 | Cc1ccc(C2(C)CCN(C(=O)N[C@@H]3[C@@H](O[C@H]4CCN(CC5(C)CC5)C4)CCCC3(F)F)CC2)cc1 [Example 130, N-[(1R,6S)-2,2-difluoro-6-({(3S)-1-[(1-methylcyclopropyl)methyl]pyrrolidin-3-yl}oxy)cyclohexyl]-4-methyl-4-(4-methylphenyl)piperidine-1-carboxamide] | 450
11 | CC(C)N1CCC(C)(O[C@H]2CCCC(F)(F)[C@@H]2NC(=O)N2CCC(C)(c3noc([C@@H]4C[C@@H]4F)n3)CC2)CC1 [Example 109, N-[(1R,6S)-2,2-difluoro-6-{[4-methyl-1-(propan-2-yl)piperidin-4-yl]oxy}cyclohexyl]-4-{5-[(1S,2S)-2-fluorocyclopropyl]-1,2,4-oxadiazol-3-yl}-4-methylpiperidine-1-carboxamide] | 359
12 | CC(C)CN(C)[C@H]1CCN([C@H]2CCCC(F)(F)[C@@H]2NC(=O)N2CCC(C)(c3noc([C@@H]4C[C@@H]4F)n3)CC2)C1 [Example 128, N-[(1R,6S)-2,2-difluoro-6-{(3S)-3-[methyl(2-methylpropyl)amino]pyrrolidin-1-yl}cyclohexyl]-4-{5-[(1S,2S)-2-fluorocyclopropyl]-1,2,4-oxadiazol-3-yl}-4-methylpiperidine-1-carboxamide] | 402
13 | CC1(c2noc([C@@H]3C[C@@H]3F)n2)CCN(C(=O)N[C@@H]2[C@@H](O[C@H]3CCN(CC4CC4)C3)CCCC2(F)F)CC1 [Example 118, N-[(1R,6S)-6-{[(3S)-1-(cyclopropylmethyl)pyrrolidin-3-yl]oxy}-2,2-difluorocyclohexyl]-4-{5-[(1S,2S)-2-fluorocyclopropyl]-1,2,4-oxadiazol-3-yl}-4-methylpiperidine-1-carboxamide] | 524
14 | CN(CC1(C(F)(F)F)CC1)C1CCN([C@H]2CCCC(F)(F)[C@@H]2NC(=O)N2CCC(C)(c3noc([C@@H]4C[C@@H]4F)n3)CC2)CC1 [Example 140, N-{(1R,6S)-2,2-difluoro-6-[4-(methyl{[1-(trifluoromethyl)cyclopropyl]methyl}amino)piperidin-1-yl]cyclohexyl}-4-{5-[(1S,2S)-2-fluorocyclopropyl]-1,2,4-oxadiazol-3-yl}-4-methylpiperidine-1-carboxamide] | 249
15 | CC(C)n1cc(O[C@H]2CCCC(F)(F)[C@@H]2NC(=O)N2CCC(C)(c3noc(C4CC4)n3)CC2)cn1 [Example 90, 4-(5-cyclopropyl-1,2,4-oxadiazol-3-yl)-N-[(1R,6S)-2,2-difluoro-6-{[1-(propan-2-yl)-1H-pyrazol-4-yl]oxy}cyclohexyl]-4-methylpiperidine-1-carboxamide] | 112
16 | CC(C)c1nsc(O[C@H]2CCCC(F)(F)[C@@H]2NC(=O)N2CCC(C)(c3noc([C@@H]4C[C@@H]4F)n3)CC2)n1 [Example 87, N-[(1R,6S)-2,2-difluoro-6-{[3-(propan-2-yl)-1,2,4-thiadiazol-5-yl]oxy}cyclohexyl]-4-{5-[(1S,2S)-2-fluorocyclopropyl]-1,2,4-oxadiazol-3-yl}-4-methylpiperidine-1-carboxamide] | 226
17 | CCN(CC)C1CCN([C@H]2CCCC(F)(F)[C@@H]2NC(=O)N2CCC(C)(c3noc([C@@H]4C[C@@H]4F)n3)CC2)CC1 [Example 129, N-{(1R,6S)-6-[4-(diethylamino)piperidin-1-yl]-2,2-difluorocyclohexyl}-4-{5-[(1S,2S)-2-fluorocyclopropyl]-1,2,4-oxadiazol-3-yl}-4-methylpiperidine-1-carboxamide] | 435
18 | CC(C)N1[C@@H]2CC[C@H]1C[C@@H](O[C@H]1CCCC(F)(F)[C@@H]1NC(=O)N1CCC(C)(c3noc([C@@H]4C[C@@H]4F)n3)CC1)C2 [Example 105, N-[(1R,6S)-2,2-difluoro-6-{[(1R,3R,5S)-8-(propan-2-yl)-8-azabicyclo[3.2.1]octan-3-yl]oxy}cyclohexyl]-4-{5-[(1S,2S)-2-fluorocyclopropyl]-1,2,4-oxadiazol-3-yl}-4-methylpiperidine-1-carboxamide] | 359

Same assay, conditions: relative percentage of luminescence for the luminescence (100%) of Orexin A (100 pM); CHO cells transiently expressing human orexin receptor type 2 and apoaequorin; Orexin A Lot. 671009; 0.0001 µM

Row | SMILES | agonist activity (%)
19 | CN(CC1CC1)C1C[C@H]2CC[C@@H](C1)N2[C@H]1CCCC(F)(F)[C@@H]1NC(=O)N1CCC(C)(c2noc([C@@H]3C[C@@H]3F)n2)CC1 (stereo partly drawn) [Example 141, N-[(1R,6S)-6-{(1R,3R,5S)-3-[(cyclopropylmethyl)(methyl)amino]-8-azabicyclo[3.2.1]octan-8-yl}-2,2-difluorocyclohexyl]-4-{5-[(1S,2S)-2-fluorocyclopropyl]-1,2,4-oxadiazol-3-yl}-4-methylpiperidine-1-carboxamide] | 405
